Among the data in a melting point compilation (Tetko et al.; mined from patent text by program, amines drawn as free bases though some values may be those of a salt) are melting point values, retold here.

SMILES strings stand for the structures.

What is called melting point is the temperature, or range, at which the solid turns liquid. Compound `CC(C)(C)OC(=O)N1[C@@H](c2ccccc2)[C@H](C(=O)OC(=O)[C@@H]2OC(C)(C)N(C(=O)OC(C)(C)C)[C@H]2c2ccccc2)OC1(C)C` came in with a melting point of 46 °C.

`Nc1c(F)c(N2CCC(C(N)c3ccccn3)C2)c(F)c2c1c(=O)c(C(=O)O)cn2C1CC1F` (configuration not stated) yielded a melting point of 178 to 180 °C.

The compound `CCOCCc1cc(C)c(OCC=NO)cc1C` had a melting point of 66 to 70 °C.

In turn, `CC(=O)Nc1c(C#N)oc2ccccc12` showed a melting point of 164 to 167 °C.

As for `Brc1ccccc1-c1nnnn1C(c1ccccc1)(c1ccccc1)c1ccccc1`, the melting point was 160 to 162 °C.

Take `Cn1c(=O)c2c(ncn2CCN2CCC(c3c[nH]c4ccccc34)CC2)n(C)c1=O`: the melting point is 201 °C.

In the case of `CCC[C@H]1CC[C@H](CCc2cc(F)c(C#N)c(F)c2)CC1`, the melting point worked out at 27.3 °C.

In turn, `C=CCN(CC=C)C(=O)n1cnc(S(C)(=O)=O)n1` came in with a melting point of 52 to 54 °C.

Take `Oc1ccc2c(c1)CCCC(c1ccccc1)=C2c1ccc(OCCCCCSCCCCF)cc1`: the melting point was 163 °C.

Turning to `COc1ccc(OC)c(S(=O)(=O)n2c(CCC(=O)O)cc3cc(Cl)ccc32)c1`, the melting point lay within 185 to 189 °C.

As to `COC(=O)CCc1ccc(CNC(=O)[C@@H]2Cc3ccccc3N2S(=O)(=O)c2ccc(C(C)(C)C)cc2)cc1`, the melting point came to 56 °C.

In the case of `C=CCN1C(=O)C2CC2(c2ccc(NC(C)=O)cc2)C1=O` (configuration not stated), the melting point fell in the range of 113 to 116 °C.

`O=c1[nH]c2cc(Cl)ccc2c(CCc2nnn[nH]2)c1-c1ccccc1`: the melting point was in the range of 231 to 233 °C.

For `CSc1ccc(N)c(C#N)c1`, the melting point fell in the range of 50 to 54 °C.

`COc1cccc2c1CCCC2=NNc1nc(-c2cccc([N+](=O)[O-])c2)cs1` came in with a melting point of 185 °C.

`Cc1cc(-n2ccnc2)c2cccc(OCc3c(Cl)ccc(S(=O)(=O)N4CCC[C@H]4C(=O)NCCCN4CCCC4)c3Cl)c2n1` displayed a melting point of 120 °C.

The compound `CC(=O)NC(NC(=O)c1ccccc1C(=O)O)C(=O)NCc1ccccc1` (configuration not stated) had a melting point of 186 to 188 °C.

`CCCCCCCCNC(=O)C1CC1c1ccc(N2CC(C(=O)O)CC2=O)cc1` (configuration not stated): the melting point is 214 °C.

With `Cc1nnc2n1-c1ccc([N+](=O)[O-])cc1C(c1ccccc1Cl)=NC2`, the melting point fell in the range of 231 to 233 °C.

Compound `O=C1CCCC2ON(Cc3ccccc3)C3C(CSC23)N1` (configuration not stated) showed a melting point of 161 to 162 °C.

Turning to `Cc1c(CC(N)=O)c2cc(OCc3nc4ccccc4s3)ccc2n1Cc1ccc(Cl)cc1`, the melting point was 169 to 170 °C.

With `CCc1nc2c(Cl)cc(F)c(-n3c(=O)cc(C(F)(F)F)[nH]c3=O)c2s1`, the melting point was in the range of 178 to 180 °C.

Compound `CN(C)c1ccc(C(=O)c2ccc(N)cc2)cc1` showed a melting point of 150 °C.

Regarding `CC(CCCn1c(C)nc2c(N)nc3ccccc3c21)=NO`, the melting point fell in the range of 264 to 266 °C.

In turn, `COC(=O)CCc1c(CCO)ccc2c1CCC(NS(=O)(=O)c1ccc(Cl)cc1)C2` (configuration not stated) displayed a melting point of 132 °C.

`CC=CC(=O)N(CCCCC(=O)O)C(c1ccccc1)c1ccccc1` showed a melting point of 88 to 89 °C.

In turn, `CN(C)C1=CC(=NS(=O)(=O)c2cccs2)c2ccccc2C1=O` showed a melting point of 183 to 185 °C.

In turn, `CC(=O)c1ccnnc1` displayed a melting point of 66.5 to 67.5 °C.

`COc1ccc2c3c1OC1CC(O)C=CC31CCN(C(=O)Nc1ccccc1)C2` (configuration not stated) yielded a melting point of 198 to 199 °C.

`CCN(CC)C(=O)c1ccc(Cl)c(C2(C)C(=O)N(Cc3ccc(OC)cc3OC)c3ccccc32)c1` (configuration not stated) returned a melting point of 172 °C.

In the case of `CCc1cccc(C)c1CNc1cc(Cn2ccnc2)cn2nc(C)nc12`, the melting point is 158 °C.

With `O=C(Nc1ccc(F)cc1)NN1CC=CCC1`, the melting point was in the range of 156 to 157 °C.

The compound `O=C(O)CC(NC(=O)OCC1c2ccccc2-c2ccccc21)C(F)(F)F` (configuration not stated) gave a melting point of 187 to 189 °C.

`COC(=O)C=Cc1ccc(OCc2nc(-c3ccccc3)c(C)s2)cc1`: the melting point is 142 to 143 °C.

Consider `CC(O)CC#Cc1ccc(C(CC2CCCC2)C(=O)O)cc1` (configuration not stated), for which the melting point lay within 73 to 76 °C.

In turn, `COc1ccc(Nc2nc(-c3cc(-c4ccccc4)no3)cs2)nc1` registered a melting point of 203 to 205 °C.

The compound `CCCCC(=O)c1cn(C(c2ccccc2)(c2ccccc2)c2ccccc2)cn1` returned a melting point of 115 to 118 °C.

As for `Cc1cccc(NC(=O)NC2N=C(c3ccccc3F)c3ccccc3N(Cc3cccnc3)C2=O)c1` (racemic), the melting point was in the range of 242 to 243 °C.

Compound `CS(=O)(=O)Nc1ccc(C(=O)C2CCN(CCc3cnc4ccccc4n3)CC2)cc1` returned a melting point of 156 to 157 °C.

`COC(=O)C(Cc1cc(OC)cc(C(F)(F)F)c1)NC(=O)c1ccccc1` (configuration not stated): the melting point turned out to be 133 °C.

As for `OC1CCCCC1c1ccccc1` (configuration not stated), the melting point lay within 55 to 57 °C.

Consider `CCCCNC(=S)C(C)Oc1ccc2oc3cc(Cl)ccc3c2c1` (configuration not stated), for which the melting point lay in the range of 101 to 104 °C.

In turn, `NC(Cn1cncn1)(Cn1cncn1)c1ccc(Cl)cc1Cl` yielded a melting point of 135 to 136 °C.

Compound `COc1cccc(Nc2cc(=S)ss2)c1` gave a melting point of 131 to 134 °C.

In turn, `CCCCCCCCCCOc1cnc(-c2ccccc2C#CCC(C)O)nc1` (single isomer, unassigned; (-)) yielded a melting point of 71 to 72 °C.

In the case of `COC(=O)c1cc(OC)c(OCc2ccccc2)c(C23CC4CC(CC(C4)C2)C3)c1`, the melting point is 229 °C.

On to `COC(=O)c1c(OC)cc(CC(C#N)=CNc2ccccc2)cc1OC`, for which the melting point lay within 193 to 194 °C.

In the case of `COC(=O)C1(CC#N)C(=O)N(Cc2ccc(Br)cc2F)C(=O)c2ccccc21` (configuration not stated), the melting point was 108 to 110 °C.

Consider `CCCCc1oc2ccccc2c1-c1ncc(-c2ccc3cc(OCC#N)ccc3c2)o1`, for which the melting point came out at 127 °C.

In the case of `Cc1cc([C@H]2[C@H](C(=O)Nc3ccc(F)c(F)c3)C2(C)C)ccc1S(N)(=O)=O` (relative stereo), the melting point fell in the range of 195 to 198 °C.

For the compound `COc1cc2c(cc1Br)c1ccccc1n2CCC(C)CCCC(C)C` (configuration not stated), the melting point came to 55 °C.

With `CC(C)(C)OC(=O)N1CCN(C2CC2)CC1`, the melting point lay within 65 to 67 °C.

As for `OC1Sc2ccccc2-c2ccccc21` (configuration not stated), the melting point is 83 to 86 °C.

With `O=C1N=c2cc(O)c(O)c(O)c2=NC1=O`, the melting point was > 350 °C.

`ClCC=C(c1ccc(Br)cc1)c1cccnc1`: the melting point was 156 to 159 °C.

As to `CCC1(CCCCN2CCN(c3ccccn3)CC2)C(=O)Nc2ccc(Br)cc21` (configuration not stated), the melting point lay in the range of 114 to 115 °C.

As for `OC(CCN1CCN(c2ccccn2)CC1)COc1ccc(F)cc1` (configuration not stated), the melting point fell in the range of 72 to 73 °C.

As to `CON=C(C(C)=C(ON)c1ccccc1C(=NOC)C(=O)OC)c1ccc(F)cc1F`, the melting point lay in the range of 110 to 119 °C.

In turn, `CC(C)(O)C(=O)N[C@H]1CC[C@H](CCN2CCC(c3cccc4c3CCO4)CC2)CC1` registered a melting point of 163 °C.

Consider `CCOC(=O)/C=C/c1cn(Cc2ccccc2)nc1OCc1ccccc1`, for which the melting point lay in the range of 88 to 89 °C.

In the case of `COc1cc(=O)c(-c2ccnn2-c2ccccc2)nn1-c1cccc(C(F)(F)F)c1`, the melting point lay within 139 to 141 °C.

Take `C[C@H](OC(=O)c1ccccc1)[C@@H](O)[C@@H](CO)OCc1ccccc1Cl`: the melting point fell in the range of 80 to 83 °C.

For `NC(=O)N1C(=O)C(C(=O)c2ccco2)c2ncc(Cl)cc21` (configuration not stated), the melting point is > 250 °C.

The compound `O=C1C(O)=C(c2ccc3ccccc3c2)C(=O)C(O)=C1c1ccc2ccccc2c1` registered a melting point of 328 to 329 °C.

`Cc1c(C)c2c(c(C)c1OCc1ccccc1)CC[C@@](C)(CCO)O2` showed a melting point of 55 to 56 °C.

Take `CS(=O)c1ccc(-c2nc3ncccc3[nH]2)cc1` (configuration not stated): the melting point lay in the range of 240 to 242 °C.

In the case of `CN1CCN(C(=O)c2ccc(Nc3cc(NC(=O)Nc4c(Cl)cc(Cl)cc4Cl)ncn3)cc2)CC1`, the melting point was 165 to 175 °C.

`O=C(Nc1cccc(C(F)(F)F)c1)c1cccc(Oc2cccc(C(F)(F)F)c2)n1` returned a melting point of 93.1 to 93.7 °C.

`Cc1cc(Oc2ncc(C(F)(F)F)cc2Cl)ccc1N=C=O` displayed a melting point of 154 to 161 °C.

Take `Cc1cc(F)ccc1-c1ccc(S(=O)(=O)N2c3ccccc3CC2C(=O)NCCOc2ccc(C(=O)OC(C)(C)C)cc2)cc1` (configuration not stated): the melting point turned out to be 84 °C.

`COc1cc2c(c3c1OC(C)(C)C3)C(c1cccc(-c3ccc(C(=O)O)cc3)c1)=NC(C)(C)C2`: the melting point was in the range of 161 to 165 °C.

On to `O=c1[nH]c2cc(Cl)ccc2c(O)c1-c1ccc2ccccc2c1`, for which the melting point is > 350 °C.

With `O=C(OCc1ccccc1)N1CCc2c(sc3nc(CCl)c(Cl)c(-c4ccc(OCc5ccccc5)cc4)c23)C1`, the melting point fell in the range of 144 to 145 °C.

The compound `CCCc1c(OCCCCCOc2ccc3ccc(OCC(=O)O)cc3c2C(C)=O)ccc(C(C)=O)c1O` gave a melting point of 103 to 106 °C.

The compound `CCn1c(N)c(C(=O)NC)c(=O)c2ccc(-c3ccc(NS(=O)(=O)c4cccc(Cl)c4Cl)c(F)c3)nc21` yielded a melting point of 333 °C.

In turn, `NS(=O)(=O)c1c(Cl)cccc1CN1CCOC1=O` came in with a melting point of 200 to 201 °C.

In turn, `CCN(C(=O)C1CC1)c1cccc(-c2ccnc3c(Cl)cnn23)c1` came in with a melting point of 150 to 151 °C.

The compound `COc1ccc(OCCOCn2cnc3ncnc(N)c32)cc1` yielded a melting point of 129 to 130 °C.

Turning to `CC1(C)Cc2cc(S(=O)(=O)Cl)ccc2O1`, the melting point was 75 to 77 °C.

Turning to `COC(=O)c1[nH]nc2c1C(C)Cc1cc(OC)ccc1-2` (configuration not stated), the melting point amounted to 163 °C.

Consider `C=C1CCC2(c3c[nH]cn3)Cc3ccccc3C12` (configuration not stated), for which the melting point lay within 167 to 174 °C.

As for `COC(=O)[C@@H](N)CCc1nnnn1CC(=O)N[C@H](C)C(=O)OC`, the melting point lay within 87 to 89 °C.

Turning to `Cc1cc(C)c2c(c1O)C(N)C(C1CCCCC1)C2` (configuration not stated), the melting point lay within 125 to 126 °C.

`CCCCN1C(=O)c2cncnc2Nc2ccccc21` returned a melting point of 145 to 147 °C.

`CN1CC(CCCl)Oc2ncccc2C1=S` (configuration not stated) gave a melting point of 134 to 136 °C.

Regarding `NC(=O)CCCSc1nccc(NC(N)=NCC(F)(F)F)n1`, the melting point fell in the range of 202 to 203 °C.

`Cc1onc(-c2ccc(Cl)cc2)c1CCl`: the melting point lay within 91 to 92 °C.
